Experimental data reported in patent publication US10398715B2, “Methods for increasing brain functionality using 2-fucosyl-lactose” (priority 2012, dated 2019).

Experiments:
[1] = system: Acetylcholinesterase (AChE); assay: Acetylcholinesterase (AChE) levels in zebrafish embryos; type: in vivo; details: zebrafish larvae, 74.73 mg per liter, 24 hours at 26° C.; negative control water; FIG. 5
Method: In this Example, the effect of 2FL on Acetylcholinesterase (AChE) in zebrafish embryos was analyzed.
Zebrafish embryos were grown in water for 96 post-fertilization hours, when eclosion occurs. The larvae were then transferred into a 24-well culture dish and incubated for 24 hours at 26° C. in a dilution of 74.73 mg of 2FL per liter. A negative control (water) and a positive control for AChE (100 mg docosahexaenoic acid/liter) were included in the assay.
After incubation, larvae were homogenized and centrifuged. AChE levels and total protein content were determined in the resultant supernatants. Two separate assays were done in triplicates. Specific AChE activity data were referred to control and analyzed by ANOVA. Bonferroni post hoc tests were used for comparisons.

[2] = system: hippocampal CA3-CA1 synapse; assay: Paired-pulse test in alert behaving rats; type: in vivo, Sprague Dawley rats; details: 1 g/kg p.o., before, 90 min and 180 min after administration, FIG. 3
Method: (§1) In this Example, the effect of 2FL on LTP of the hippocampal CA3-CA1 synapse in alert behaving rats was analyzed,
(§2) A total of four male Sprague Dawley rats, each 2 months old weighing from 150-200 g, were placed in individual cages with food and water ad libitum. Rats were kept on a 12/12 hour light/dark cycle with constant ambient temperature (22±1° C.) and humidity (50±7%). All tests were conducted during the light cycle.
(§3) The rats were anesthetized with 0.8%-3% isofluorane (available from AstraZeneca, Madrid, Spain) delivered via a home-made mask. […] was administered from a calibrated Fluotec 5 vaporizer (available from Fluotec-Ohmeda, Tewksbury, Mass.) at a flow rate of 1-4 L/min oxygen. Once anesthetized, the rats were implanted with stimulating and recording electrodes in the hippocampus. […] The recording electrodes were fixed at the site where a reliable monosynaptic field excitatory post-synaptic potential (fEPSP) was recorded. […]
(§4) Control values for input/output curves and paired-pulse facilitation in the four rats were determined. […]

[3] = system: hippocampal CA3-CA1 synapse; assay: LTP induction in behaving rats; type: in vivo, Sprague Dawley rats; details: after 15 days of daily administration of 1 g/kg, vs control values, FIG. 4
Method: as §1, §2, §3
For evoking LTP, each rat was presented with five 200 Hz, 100 ms trains of pulses at a rate of 1/s. […] After, fEPSPs were recorded again for 30 minutes. […]

[4] = system: hippocampal CA3-CA1 synapse; assay: Hippocampal LTP response in early stressed maternally deprived mice (fEPSP recordings); type: in vivo, C57BL/6 mice; details: MS-stressed mice, AIN93G diet supplemented with 2-fucosyllactose (~7 mg/day/mouse) for eight weeks; compared with the control groups, p<0.05; FIG. 1
Method: In this Example, the effect of 2-fucosyl-lactose on hippocampal LTP response in early stressed maternally deprived mice was analyzed.
Initially, mice pups were early stressed using a model of maternal separation. Particularly, one day after delivery, C57BL/6 mice pups were sexed and grouped as sham (non-stressed Control group) or maternally separated (MS—stressed group) animals. From day 2 until day 14 after delivery, the MS pups were removed from the dam and kept isolated for a period of 4 hours per day, typically, from 10:00 AM to 2:00 PM, in a thermostatted cup. During the same time period, pups from the sham group were daily handled for a period of five minutes in order to receive the same grade of habituation to a researcher's hands as the MS pups.
Each dam had litters of 4 males and 2 females. Females were allowed to stay with the mother, while males were maternally deprived in order to avoid stressing the dam by removing all of the pups. […]
At the nutritional intervention stage, mice were fed experimental diets for a period of eight weeks. […] The recording electrodes were fixed at the site where a reliable monosynaptic field excitatory post-synaptic potential (fEPSP) was recorded. […]
For evoking LTP, each animal was presented with five 200 Hz, […] trains of pulses at a rate of 1/s. […] After, fEPSPs were recorded again for 30 minutes. […]

[5] = system: hippocampal CA3-CA1 synapse; assay: Input/output curves evoked at the hippocampal CA3-CA1 synapse in alert behaving rats; type: in vivo, Sprague Dawley rats; details: 1 g/kg p.o. in gelatin, 90 and 180 minutes after administration vs before, FIG. 2
Method: as §1, §2, §3, §4

2-fucosyl-lactose [2FL]
AChE levels compared to the negative control [1]: significant increase
paired-pulse facilitation, differences between the three recording sessions [2]: no significant differences
fEPSPs of LTP evoked after HFS of the hippocampal CA3-CA1 synapse [3]: significantly larger fEPSPs than control values
potentiation of field excitatory post-synaptic potentials evoked at the hippocampal CA3-CA1 synapse [4]: larger, longer-lasting potentiation
amplitude of fEPSPs evoked at the CA3-CA1 synapse (input/output curves) [5]: significantly larger
